Test results as given in ChEMBL document CHEMBL5150044, “Macrocyclization of Quinazoline-Based EGFR Inhibitors Leads to Exclusive Mutant Selectivity for EGFR L858R and Del19” (J Med Chem, 2022).
Where a chain is given by its changes, count along the chain named. Values after ≈ are worked out from the molar mass of the structure shown. Active and inactive are the calls of the source. The rule behind the calls is not given here.

What was measured:
[1] = target: RAC-alpha serine/threonine-protein kinase (Mus musculus) (UniProt P31750); experiment: Inhibition of AKT phosphorylation in mouse BaF3 cells harboring Del19 mutant assessed as […] phosphorylation at 10 to 1000 nM incubated for 8 hrs by Western blot analysis; format: cell-based; settings: dose 10-1000 nM
[2] = target: T1, Mitogen-activated protein kinase 1 and 3 (ERK2 and ERK1) (Mus musculus) (UniProt P63085+Q63844); format: cell-based; settings: BaF3, dose 10-1000 nM, time 8.0 hrs
[3] = target: RAC-alpha serine/threonine-protein kinase (Mus musculus) (UniProt P31750); format: cell-based; settings: BaF3, dose 10-1000 nM, time 8.0 hrs
[4] = target: Epidermal growth factor receptor (Homo sapiens, UniProt P00533, L858R)
[5] = target: Epidermal growth factor receptor (Homo sapiens, UniProt P00533, EX19DEL)
[6] = target: T1, Mitogen-activated protein kinase 1 and 3 (ERK2 and ERK1) (Mus musculus); format: cell-based; settings: BaF3, dose 10-1000 nM, time 8.0 hrs; remark: listed apart in the source
[7] = target: RAC-alpha serine/threonine-protein kinase (Mus musculus) (UniProt P31750); experiment: Inhibition of AKT phosphorylation in mouse BaF3 cells harboring L858R mutant assessed as […] phosphorylation at 10 to 1000 nM incubated for 8 hrs by Western blot analysis; format: cell-based; settings: dose 10-1000 nM
[8] = test system: Epidermal growth factor receptor (Homo sapiens), P04626+P00533+Q15303+P21860 [L858R]; settings: Mus musculus; BaF3; dose 10-1000 nM, time 8.0 hrs
[9] = target: T1, Mitogen-activated protein kinase 1 and 3 (ERK2 and ERK1) (Mus musculus); experiment: Inhibition of ERK1/2 phosphorylation in mouse BaF3 cells harboring L858R mutant assessed as ERK1/2 phosphorylation at 10 to 1000 nM incubated for 8 hrs by Western blot analysis; format: cell-based; settings: dose 10-1000 nM
[10] = target: Epidermal growth factor receptor (Homo sapiens, UniProt P00533)
[11] = target: T1, Mitogen-activated protein kinase 1 and 3 (ERK2 and ERK1) (Mus musculus); experiment: Inhibition of ERK1/2 phosphorylation in mouse BaF3 cells harboring Del19 mutant assessed as ERK1/2 phosphorylation at 10 to 1000 nM incubated for 8 hrs by Western blot analysis; format: cell-based; settings: dose 10-1000 nM
[12] = target: RAC-alpha serine/threonine-protein kinase (Mus musculus) (UniProt P31750); format: cell-based; settings: BaF3, dose 10-1000 nM, time 8.0 hrs; remark: listed apart in the source
BaF3 [13] = experiment: cells; settings: Mus musculus, BaF3, 72 h
BaF3 [14] = experiment: cells; settings: Mus musculus, BaF3, 72 h; remark: listed apart in the source
BaF3 [15] = experiment: cells; settings: Mus musculus, BaF3, 72 h; remark: listed apart in the source
BaF3 [16] = experiment: cells; format: functional, cell-based; settings: Mus musculus, BaF3, 72 h
BaF3 [17] = experiment: cells; settings: Mus musculus, BaF3, 72 h; remark: listed apart in the source
BaF3 [18] = experiment: cells; format: functional, cell-based; settings: Mus musculus, BaF3, 72 h; remark: listed apart in the source
BaF3 [19] = experiment: cells; format: functional, cell-based; settings: Mus musculus, BaF3, 72 h; remark: listed apart in the source
BaF3 [20] = experiment: cells; format: functional, cell-based; settings: Mus musculus, BaF3, 72 h; remark: listed apart in the source
BaF3 [21] = experiment: cells; settings: Mus musculus, BaF3, 72 h; remark: listed apart in the source
BaF3 [22] = experiment: cells; settings: Mus musculus, BaF3, 72 h; remark: listed apart in the source
BaF3 [23] = experiment: cells; settings: Mus musculus, BaF3, 72 h; remark: listed apart in the source
BaF3 [24] = experiment: cells; settings: Mus musculus, BaF3, 72 h; remark: listed apart in the source
[25] = target: Epidermal growth factor receptor (Homo sapiens, UniProt P00533, L858R/T790M)
[26] = test system: Receptor-type tyrosine-protein kinase FLT3 (Homo sapiens), P36888 [UNDEFINED MUTATION]; experiment: Inhibition of FLT3 ITD/D835V mutant (unknown origin) assessed as percent of control activity at 1 uM by radiometric protein kinase-reaction biology assay; values are per cent of control
BaF3 [27] = experiment: Inhibition of EGFR Del19 mutant in mouse BaF3 cells assessed as protein phosphorylation at 10 to 1000 nM incubated for 8 hrs by Western blot analysis; format: cell-based; settings: dose 10-1000 nM
[28] = test system: T2, Receptor-type tyrosine-protein kinase FLT3 (Homo sapiens), P36888 [D835V]; experiment: Inhibition of FLT3 D835V mutant (unknown origin) assessed as percent of control activity at 1 uM by radiometric protein kinase-reaction biology assay; values are per cent of control
T2 sequence (whole entry): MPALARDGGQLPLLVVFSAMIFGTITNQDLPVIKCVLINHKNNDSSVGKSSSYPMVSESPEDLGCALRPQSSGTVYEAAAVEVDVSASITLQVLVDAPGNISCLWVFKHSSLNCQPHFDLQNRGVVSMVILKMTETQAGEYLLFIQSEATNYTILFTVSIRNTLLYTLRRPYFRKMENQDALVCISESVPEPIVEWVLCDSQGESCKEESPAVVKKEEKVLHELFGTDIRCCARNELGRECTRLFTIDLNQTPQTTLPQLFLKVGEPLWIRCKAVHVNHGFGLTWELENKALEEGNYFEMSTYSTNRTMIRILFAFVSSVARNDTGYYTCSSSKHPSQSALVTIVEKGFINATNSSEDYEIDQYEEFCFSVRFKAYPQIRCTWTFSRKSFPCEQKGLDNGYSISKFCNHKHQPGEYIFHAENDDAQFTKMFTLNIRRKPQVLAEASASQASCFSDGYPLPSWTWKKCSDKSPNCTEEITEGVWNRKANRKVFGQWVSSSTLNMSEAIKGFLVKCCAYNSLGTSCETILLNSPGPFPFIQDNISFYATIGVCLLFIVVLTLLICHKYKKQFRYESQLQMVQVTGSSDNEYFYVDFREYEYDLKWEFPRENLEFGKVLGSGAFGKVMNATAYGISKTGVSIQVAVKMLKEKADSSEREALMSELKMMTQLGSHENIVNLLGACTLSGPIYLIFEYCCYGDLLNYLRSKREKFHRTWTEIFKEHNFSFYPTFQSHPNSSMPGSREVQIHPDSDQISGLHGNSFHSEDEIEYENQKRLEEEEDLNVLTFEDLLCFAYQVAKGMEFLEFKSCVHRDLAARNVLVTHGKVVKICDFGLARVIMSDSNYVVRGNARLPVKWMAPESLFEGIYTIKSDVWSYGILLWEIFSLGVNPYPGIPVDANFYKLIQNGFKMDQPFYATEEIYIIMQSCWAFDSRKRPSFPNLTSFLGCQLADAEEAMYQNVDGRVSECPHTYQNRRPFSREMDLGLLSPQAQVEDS

BaF3 [29] = format: cell-based; settings: Mus musculus, dose 10-1000 nM, time 8.0 hrs
[30] = Solubility in 100% DMSO after 24 hrs by HPLC analysis; format: physicochemical
[31] = Solubility in 10% DMSO after 24 hrs by HPLC analysis; format: physicochemical
BaF3 [32] = format: cell-based; settings: Mus musculus, dose 10-1000 nM, time 8.0 hrs; remark: listed apart in the source
Homo sapiens = species: Homo sapiens; experiment: Inhibition of EGFR […] mutant (unknown origin) assessed as percent of control activity at 1 uM by radiometric protein kinase-reaction biology assay; values are per cent of control
[33] = test system: T3, Receptor-type tyrosine-protein kinase FLT3 (Homo sapiens), P36888 [D835Y]; experiment: Inhibition of FLT3 D835Y mutant (unknown origin) assessed as percent of control activity at 1 uM by radiometric protein kinase-reaction biology assay; values are per cent of control
T3 sequence (whole entry): T2 sequence (whole entry) with V835Y

[34] = Solubility in neutral aqueous solutions after 24 hrs by HPLC analysis; format: physicochemical

RAC-alpha serine/threonine-protein kinase (Mus musculus), sequence (P31750 whole entry): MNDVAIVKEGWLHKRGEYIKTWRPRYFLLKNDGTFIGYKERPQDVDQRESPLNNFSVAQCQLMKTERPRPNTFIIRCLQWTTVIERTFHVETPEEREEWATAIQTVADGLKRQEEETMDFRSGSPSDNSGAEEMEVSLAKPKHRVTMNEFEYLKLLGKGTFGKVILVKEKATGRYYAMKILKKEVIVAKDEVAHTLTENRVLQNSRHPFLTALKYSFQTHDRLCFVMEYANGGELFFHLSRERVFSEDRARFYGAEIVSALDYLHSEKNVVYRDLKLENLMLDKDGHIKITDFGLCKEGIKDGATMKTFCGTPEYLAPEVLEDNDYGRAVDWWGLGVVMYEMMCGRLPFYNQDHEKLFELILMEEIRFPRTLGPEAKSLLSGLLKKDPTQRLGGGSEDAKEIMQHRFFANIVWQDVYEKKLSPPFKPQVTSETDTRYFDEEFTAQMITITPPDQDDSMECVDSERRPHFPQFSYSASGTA
Epidermal growth factor receptor (Homo sapiens, UniProt P00533, L858R), sequence (P00533 25-1210 L858R limits assumed): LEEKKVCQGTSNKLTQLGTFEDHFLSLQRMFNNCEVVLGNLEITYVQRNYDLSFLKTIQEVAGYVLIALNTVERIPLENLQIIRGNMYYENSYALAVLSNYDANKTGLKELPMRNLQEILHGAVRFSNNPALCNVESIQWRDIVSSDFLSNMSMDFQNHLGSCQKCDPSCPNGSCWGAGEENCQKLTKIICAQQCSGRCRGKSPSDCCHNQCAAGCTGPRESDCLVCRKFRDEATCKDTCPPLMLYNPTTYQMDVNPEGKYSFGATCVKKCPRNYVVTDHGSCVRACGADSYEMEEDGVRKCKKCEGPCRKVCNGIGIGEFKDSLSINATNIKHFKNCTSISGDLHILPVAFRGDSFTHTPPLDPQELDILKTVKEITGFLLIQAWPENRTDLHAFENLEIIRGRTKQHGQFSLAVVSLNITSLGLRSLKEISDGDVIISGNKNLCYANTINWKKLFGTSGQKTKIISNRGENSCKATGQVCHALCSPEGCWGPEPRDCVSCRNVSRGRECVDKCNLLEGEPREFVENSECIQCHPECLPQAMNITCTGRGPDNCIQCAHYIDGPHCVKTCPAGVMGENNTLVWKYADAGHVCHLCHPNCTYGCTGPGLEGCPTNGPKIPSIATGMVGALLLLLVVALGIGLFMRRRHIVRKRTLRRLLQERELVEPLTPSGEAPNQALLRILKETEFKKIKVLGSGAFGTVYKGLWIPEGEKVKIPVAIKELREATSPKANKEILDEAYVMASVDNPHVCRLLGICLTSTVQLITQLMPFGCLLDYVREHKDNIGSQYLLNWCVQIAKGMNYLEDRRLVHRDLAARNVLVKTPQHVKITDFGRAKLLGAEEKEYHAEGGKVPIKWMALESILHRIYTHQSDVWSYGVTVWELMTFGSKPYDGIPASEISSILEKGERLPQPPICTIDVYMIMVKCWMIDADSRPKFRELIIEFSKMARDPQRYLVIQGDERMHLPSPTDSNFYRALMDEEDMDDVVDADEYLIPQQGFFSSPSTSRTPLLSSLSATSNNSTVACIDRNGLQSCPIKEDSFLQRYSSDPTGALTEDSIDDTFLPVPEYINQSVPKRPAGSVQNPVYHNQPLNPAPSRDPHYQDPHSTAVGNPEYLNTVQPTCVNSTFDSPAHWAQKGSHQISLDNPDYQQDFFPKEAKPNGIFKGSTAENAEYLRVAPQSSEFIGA
T1 sequence (P63085 whole entry, looked up): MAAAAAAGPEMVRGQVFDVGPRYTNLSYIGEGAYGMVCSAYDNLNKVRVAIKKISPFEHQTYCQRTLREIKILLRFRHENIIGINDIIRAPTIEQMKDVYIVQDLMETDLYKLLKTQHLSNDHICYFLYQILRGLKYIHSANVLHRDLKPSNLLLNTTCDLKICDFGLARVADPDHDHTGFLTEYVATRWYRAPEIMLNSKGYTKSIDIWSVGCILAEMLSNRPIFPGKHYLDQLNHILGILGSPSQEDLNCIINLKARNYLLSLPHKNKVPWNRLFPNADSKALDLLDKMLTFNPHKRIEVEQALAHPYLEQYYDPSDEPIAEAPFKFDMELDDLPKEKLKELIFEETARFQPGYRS
T1 sequence (Q63844 whole entry, looked up): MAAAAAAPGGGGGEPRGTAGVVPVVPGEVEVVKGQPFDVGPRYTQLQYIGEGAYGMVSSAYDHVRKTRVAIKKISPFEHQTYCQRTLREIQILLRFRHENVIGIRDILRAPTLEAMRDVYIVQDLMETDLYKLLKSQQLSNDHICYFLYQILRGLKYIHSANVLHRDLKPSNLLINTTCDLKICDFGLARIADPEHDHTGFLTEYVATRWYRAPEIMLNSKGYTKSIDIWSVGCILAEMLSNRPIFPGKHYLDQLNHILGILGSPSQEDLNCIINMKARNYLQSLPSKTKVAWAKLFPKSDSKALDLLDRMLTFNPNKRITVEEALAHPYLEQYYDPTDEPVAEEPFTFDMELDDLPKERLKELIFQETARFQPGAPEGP
Epidermal growth factor receptor (Homo sapiens, UniProt P00533, EX19DEL), sequence (P00533 whole entry, looked up, stated change not applied): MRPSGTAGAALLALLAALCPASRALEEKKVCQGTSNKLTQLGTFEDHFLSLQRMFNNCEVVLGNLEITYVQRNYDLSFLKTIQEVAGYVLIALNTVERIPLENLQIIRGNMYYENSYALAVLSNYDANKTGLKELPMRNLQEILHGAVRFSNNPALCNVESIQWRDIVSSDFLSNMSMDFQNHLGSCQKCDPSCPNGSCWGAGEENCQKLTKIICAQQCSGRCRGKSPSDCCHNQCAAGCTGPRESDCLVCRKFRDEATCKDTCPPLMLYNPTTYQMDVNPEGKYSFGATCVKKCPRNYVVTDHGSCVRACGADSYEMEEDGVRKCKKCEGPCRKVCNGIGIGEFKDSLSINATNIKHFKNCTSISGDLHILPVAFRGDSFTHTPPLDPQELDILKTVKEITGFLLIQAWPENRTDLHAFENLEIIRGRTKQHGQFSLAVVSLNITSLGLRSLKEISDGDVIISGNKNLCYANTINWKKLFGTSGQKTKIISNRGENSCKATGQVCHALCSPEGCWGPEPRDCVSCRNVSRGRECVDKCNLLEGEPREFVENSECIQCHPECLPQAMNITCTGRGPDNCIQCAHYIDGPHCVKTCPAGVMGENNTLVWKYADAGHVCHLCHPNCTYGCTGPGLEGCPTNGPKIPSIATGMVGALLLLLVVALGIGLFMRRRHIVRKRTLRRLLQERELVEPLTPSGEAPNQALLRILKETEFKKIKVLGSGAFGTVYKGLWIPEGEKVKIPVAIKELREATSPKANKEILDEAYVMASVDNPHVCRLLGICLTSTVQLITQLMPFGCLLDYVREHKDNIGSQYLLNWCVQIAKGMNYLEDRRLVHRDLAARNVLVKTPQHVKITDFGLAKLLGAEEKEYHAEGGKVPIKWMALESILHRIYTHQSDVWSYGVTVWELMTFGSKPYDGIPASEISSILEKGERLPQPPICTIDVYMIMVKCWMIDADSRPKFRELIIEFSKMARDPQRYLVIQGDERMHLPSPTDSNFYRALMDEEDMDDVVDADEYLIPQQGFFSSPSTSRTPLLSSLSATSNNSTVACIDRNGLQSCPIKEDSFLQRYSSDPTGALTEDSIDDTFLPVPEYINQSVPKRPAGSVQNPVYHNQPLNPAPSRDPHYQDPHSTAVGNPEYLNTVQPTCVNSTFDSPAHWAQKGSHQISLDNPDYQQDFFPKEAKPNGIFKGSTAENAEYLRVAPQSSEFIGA
Epidermal growth factor receptor (Homo sapiens, UniProt P00533), sequence (P00533 whole entry): as the sequence (P00533 whole entry, looked up, stated change not applied) above

Structure (SMILES)	IC50 [4] [nM]	IC50 [5] [nM]	IC50 [10] [µM]	also measured
COc1cc2ncnc3c2cc1OCCCCCCOc1c(Cl)cccc1N3	> 100000	3030		
C=CC(=O)Nc1cc(Nc2ncc(C(=O)OC(C)C)c(-c3cn(C)c4ccccc34)n2)c(OC)cc1N(C)CCN(C)C [MOBOCERTINIB]				IC50 (BaF3 [13]): 1130 nM; IC50 (BaF3 [14]): 2170 nM; IC50 (BaF3 [15]): 8.9 nM; IC50 (BaF3 [16]): 9 nM; IC50 (BaF3 [17]): 8.3 nM; IC50 (BaF3 [18]): 1060 nM; IC50 (BaF3 [19]): 5 nM; IC50 (BaF3 [20]): 10.1 nM; IC50 (BaF3 [21]): 3.81 µM; IC50 (BaF3 [22]): 27.1 nM; IC50 (BaF3 [23]): 47.6 nM; IC50 (BaF3 [24]): 1.9 nM
COc1cc2ncnc3c2cc1OCCCCCCOc1ccccc1N3		491		
COc1cc2ncnc3c2cc1OCCOCCOc1ccccc1N3	685	155	> 100	IC50 [25]: 1680 nM
COc1cc2ncnc3c2cc1OCCCCCCOc1ccc(Cl)cc1N3	739	19.6	> 100	
COc1cc2ncnc3c2cc1OCCCCCCOc1cc(Cl)ccc1N3	> 100000	63500	> 100	
COc1cc2ncnc3c2cc1OCCOCCOc1cc(Cl)cc(c1)N3		6300		
COc1cc2ncnc3c2cc1OCCOCCOc1cccc(c1)N3		33900		
COc1cc2ncnc3c2cc1OCCOCCOc1cc(F)c(Cl)cc1N3				residual activity [26]: 33%; inhibition (BaF3 [27]): Active; residual activity [28]: 5%; inhibition (BaF3 [29]): Active; solubility [30]: 2.592 mg/mL (≈ 6390 µM); solubility at 24 h [31]: 0.283 µg/mL (≈ 0.697 µM); inhibition (BaF3 [32]): Active; residual activity (Homo sapiens): 26%; residual activity [33]: 25%; solubility at 24 h [34]: 0.131 µg/mL (≈ 0.323 µM)
COc1cc2ncnc3c2cc1OCCCCCCOc1cccc(Cl)c1N3	275	56.8	> 100	

The next lines start with results.

IC50 [4] [nM]	IC50 [5] [nM]	IC50 [10] [µM]	Structure (SMILES)	also measured
2.8	1.3	> 100	COc1cc2ncnc3c2cc1OCCOCCOCCOc1cc(F)c(Cl)cc1N3	inhibition [1]: Active; inhibition [2]: Active; inhibition [3]: Active; inhibition [6]: Active; inhibition [7]: Active; inhibition [8]: Active; inhibition [9]: Active; inhibition [11]: Active; inhibition [12]: Active
1120	493		COc1cc2ncnc3c2cc1OCCOCCOc1cc(ccc1Cl)N3	
	509		COc1cc2ncnc3c2cc1OCCOCCOc1c(Cl)cccc1N3	
128	24.9	> 100	COc1cc2ncnc3c2cc1OCCOCCOc1ccc(Cl)cc1N3	
655	235	> 100	COc1cc2ncnc3c2cc1OCCCCCCOc1cc(F)c(Cl)cc1N3	
87.6	1870	> 100	COc1cc2ncnc3c2cc1OCCOCCOCCOc1ccccc1N3	
19900	70400	> 100	COc1cc2ncnc3c2cc1OCCOCCOc1ccc(Cl)c(c1)N3	
		> 100	COc1cc2ncnc3c2cc1OCCOCCOc1cc(Cl)ccc1N3	
38.3	16.2	> 100	COc1cc2ncnc3c2cc1OCCOCCOCCOc1cc(Cl)ccc1N3	
32.6	42.9	> 100	COc1cc2ncnc3c2cc1OCCOCCOCCOc1cccc(Cl)c1N3	
0.7	0.3	> 100	COc1cc2ncnc3c2cc1OCCOCCOCCOc1ccc(Cl)cc1N3	inhibition [1]: Active; inhibition [2]: Active; inhibition [3]: Active; inhibition [6]: Active; inhibition [7]: Active; inhibition [8]: Active; inhibition [9]: Active; inhibition [11]: Active; inhibition [12]: Active
	1030		Fc1cc2c(cc1Cl)Nc1ncnc3ccc(cc13)OCCOCCO2	IC50 (BaF3 [18]): 2760 nM; IC50 (BaF3 [19]): 3100 nM; IC50 (BaF3 [24]): 5360 nM
